Results on 23 molecules are retold here after US20240317706A1, “COMPOUNDS THAT MEDIATE PROTEIN DEGRADATION AND METHODS OF USE THEREOF” (Monte Rosa Therapeutics, Inc., priority 2021, published 2024).

Molecules are shown by their SMILES. A value given as a limit tells only on which side of the number the result lay.

Test [1] addresses T1, CDK2 (Homo sapiens, UniProt P24941).
T1 construct: HEK293 clonal lines with CRISPR KI HiBiT tag on CDK2 proteins; host or cells: HEK293 clonal line, CRISPR knock-in HiBiT-CDK2, stably expressing LgBiT
The test is described as follows: HiBiT assay (CDK2 degradation). Type of test: cell-based. As to conditions: HEK293 clonal line with CRISPR KI HiBiT tag on CDK2, 24 hours, HiBiT Lysis Reagent. As for the experimental part: HEK293 clonal lines with CRISPR KI HiBiT tag on CDK2 proteins and stably expressing LgBiT protein were obtained from Promega (Madison, WI). Cells were plated at 5000 cells per well using Multiflo (BioTek) in 384-well white solid bottom plates (Corning, 3570BC) in 25 ul volume in DMEM media (DMEM, high glucose, HEPES, no phenol red (ThermoFisher Scientific, 21063029)) containing 10% FBS (Corning, 35-075-CV), 1% Penicillin/Streptomycin (ThermoFisher Scientific, 15140-122). Cells were incubated for 16 hours at 37° C., 5% CO2. 75 nL of a compound at 30 μM were dosed into the plate using an Echo® 650 liquid handler (Labcyte). Cells were incubated at 37° C., 5% CO2 for 24 hours. 5 ul of HiBiT Lysis Reagent (Promega, N3030) is added using Combi Multidrop (ThermoFisher Scientific), plates are incubated for 15′ at 37° C., 5% CO2 and then signal was read on a Pherastar FSX using “LUM plus” optic module.
Analysis was performed in Scinamic (Scinamic, Cambridge, MA). Luminescence response (R) was calculated by the formula: response=100*(S−N)/(P−N) where S is the signal of the well, N and P the mean negative and positive control values respectively of the same plate. The luminescence response was then fitted in Scinamic using a 3-parameter agonist logistic fit (hillslope=1, EC50>0, top/bottom unconstrained).

The target in test [2] is CRBN-DDB1 (Homo sapiens, UniProt Q96SW2). Description: Compound binding to CRBN by HTRF assay. As to conditions: CRBN-DDB1 2.5 nM, Cy5-Thalidomide 100 nM, 30 min; Ki from geometric mean IC50 by Cheng-Prustoff transformation. In a few lines: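 HTRF displacement of Cy5-thalidomide probe (100 nM) from His-CRBN-DDB1 (2.5 nM) with anti-His terbium cryptate, in HEPES/NaCl/TCEP/EDTA/Tween20 buffer. 10-point 1:3 compound series, 30 min at ambient temperature; signal normalised to DMSO and lenalidomide controls, IC50 fitted and Ki derived by Cheng-Prusoff.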
Sequence of CRBN-DDB1 (Q96SW2 whole entry): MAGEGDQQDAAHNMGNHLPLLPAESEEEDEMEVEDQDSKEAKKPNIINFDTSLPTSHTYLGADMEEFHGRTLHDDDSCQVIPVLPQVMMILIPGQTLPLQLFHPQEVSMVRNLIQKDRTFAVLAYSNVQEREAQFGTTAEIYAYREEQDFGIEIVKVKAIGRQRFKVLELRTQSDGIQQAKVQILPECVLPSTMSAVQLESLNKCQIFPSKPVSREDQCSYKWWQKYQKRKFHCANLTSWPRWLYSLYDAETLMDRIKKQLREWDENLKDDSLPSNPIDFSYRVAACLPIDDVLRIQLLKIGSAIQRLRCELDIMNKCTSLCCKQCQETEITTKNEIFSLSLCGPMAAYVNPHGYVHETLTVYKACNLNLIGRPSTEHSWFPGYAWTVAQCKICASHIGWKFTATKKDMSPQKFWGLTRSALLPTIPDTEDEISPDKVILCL
Sequence of CRBN-DDB1 (Q16531 whole entry partner): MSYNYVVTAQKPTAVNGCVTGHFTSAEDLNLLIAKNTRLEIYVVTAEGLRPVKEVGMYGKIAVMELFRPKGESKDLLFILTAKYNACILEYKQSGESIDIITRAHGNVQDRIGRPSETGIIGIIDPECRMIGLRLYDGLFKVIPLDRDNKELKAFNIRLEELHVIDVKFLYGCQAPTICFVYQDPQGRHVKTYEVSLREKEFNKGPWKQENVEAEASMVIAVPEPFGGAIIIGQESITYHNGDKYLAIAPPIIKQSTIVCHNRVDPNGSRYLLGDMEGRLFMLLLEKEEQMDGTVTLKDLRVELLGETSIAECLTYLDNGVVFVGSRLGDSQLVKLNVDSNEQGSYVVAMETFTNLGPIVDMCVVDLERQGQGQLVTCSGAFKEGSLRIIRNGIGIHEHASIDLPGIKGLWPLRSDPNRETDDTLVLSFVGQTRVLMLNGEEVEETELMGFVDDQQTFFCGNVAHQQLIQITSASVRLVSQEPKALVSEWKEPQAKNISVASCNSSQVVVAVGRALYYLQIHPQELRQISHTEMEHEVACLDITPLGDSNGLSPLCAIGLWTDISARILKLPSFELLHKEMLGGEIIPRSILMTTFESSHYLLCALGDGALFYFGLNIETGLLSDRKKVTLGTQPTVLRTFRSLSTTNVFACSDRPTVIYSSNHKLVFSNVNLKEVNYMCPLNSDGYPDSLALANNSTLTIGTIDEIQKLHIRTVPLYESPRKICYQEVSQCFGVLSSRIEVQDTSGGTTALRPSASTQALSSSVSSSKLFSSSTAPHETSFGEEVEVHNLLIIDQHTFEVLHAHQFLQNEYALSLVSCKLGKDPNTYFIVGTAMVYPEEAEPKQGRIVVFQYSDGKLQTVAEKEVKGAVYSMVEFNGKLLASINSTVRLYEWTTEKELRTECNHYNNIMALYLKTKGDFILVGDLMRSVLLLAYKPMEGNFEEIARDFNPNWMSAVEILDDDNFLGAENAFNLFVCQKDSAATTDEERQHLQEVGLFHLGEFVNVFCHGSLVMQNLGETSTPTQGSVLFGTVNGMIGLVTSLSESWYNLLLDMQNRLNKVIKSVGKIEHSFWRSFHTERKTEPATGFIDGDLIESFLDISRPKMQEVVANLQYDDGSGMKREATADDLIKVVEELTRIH

Test [3] has as its target T1, CDK2. Description: NanoBiT assay (CDK2 degradation). The test is classed as cell-based. As to conditions: HEK293, HEK293 clonal line with CRISPR KI HiBiT tag on CDK2, Endurazine live cell substrate, 24 hours. In a few lines:
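HEK293 cells with endogenous HiBiT-tagged CDK2 knock-in and stable LgBiT, with Endurazine live-cell substrate; cells were dosed with compound (30 μM stock) for 24 h at 37 °C, then luminescence was read. Response normalised to plate negative/positive controls and fitted to a 3-parameter logistic (hillslope=1) for EC50.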

For `O=C1CCC(N2Cc3ccc(CNC(=O)OCC4(F)CCC4)cc3C2=O)C(=O)N1` (stereo not drawn) [Compound 74, (1-fluorocyclobutyl)methyl N-{[2-(2,6-dioxopiperidin-3-yl)-3-oxo-2,3-dihydro-1H-isoindol-5-yl]methyl}carbamate], in test [1], the Dmax was no more than 10%. This molecule also came in with an inhibition constant (Ki) in test [2] of 100 to 1000 nM.

The molecule `O=C1CCC(N2Cc3ccc(CNC(=O)O[C@@H]4C[C@H]5CC[C@@H]4O5)cc3C2=O)C(=O)N1` (mixture of isomers) [Compound 27, rac-(1R,2S,4S)-7-oxabicyclo[2.2.1]heptan-2-yl N-{[2-(2,6-dioxopiperidin-3-yl)-3-oxo-2,3-dihydro-1H-isoindol-5-yl]methyl}carbamate] came in with a Dmax in test [1] of no more than 10%. Moreover, the Ki in test [2] fell in the range of 100 to 1000 nM.

In test [1], `C[C@H]1COC[C@@H]1OC(=O)NCc1ccc2c(c1)C(=O)N(C1CCC(=O)NC1=O)C2` (stereo partly drawn) [Compound 30, (3R,4S)-4-methyloxolan-3-yl N-{[2-(2,6-dioxopiperidin-3-yl)-3-oxo-2,3-dihydro-1H-isoindol-5-yl]methyl}carbamate] yielded a Dmax of no more than 10%. Further, the Ki in test [2] was in the range of 100 to 1000 nM.

`O=C1CCC(N2Cc3ccc(CNC(=O)OCC45CC(c6ccccc6)(C4)C5)cc3C2=O)C(=O)N1` (stereo not drawn) [Compound 6, (3-phenylbicyclo[1.1.1]pentan-1-yl)methyl ((2-(2,6-dioxopiperidin-3-yl)-3-oxoisoindolin-5-yl)methyl)carbamate] yielded a Dmax in test [1] of 10 to 50%.

For the molecule `O=C1CCC(N2Cc3ccc(CNC(=O)OC4Cc5ccccc54)cc3C2=O)C(=O)N1` (stereo not drawn) [Compound 35, bicyclo[4.2.0]octa-1,3,5-trien-7-yl N-{[2-(2,6-dioxopiperidin-3-yl)-3-oxo-2,3-dihydro-1H-isoindol-5-yl]methyl}carbamate], the Dmax in test [1] was 10 to 50%. In test [2], the Ki is no more than 100 nM.

In test [1], `O=C1CCC(N2Cc3ccc(CNC(=O)OCC4CC45CCC(F)(F)CC5)cc3C2=O)C(=O)N1` (stereo not drawn) [Compound 95, {6,6-difluorospiro[2.5]octan-1-yl}methyl N-{[2-(2,6-dioxopiperidin-3-yl)-3-oxo-2,3-dihydro-1H-isoindol-5-yl]methyl}carbamate] gave a Dmax of 10 to 50%. In test [2], this molecule came in with a Ki of 100 to 1000 nM.

Molecule `O=C1CCC(N2Cc3ccc(CNC(=O)OC[C@H]4CCCO4)cc3C2=O)C(=O)N1` (stereo partly drawn) [Compound 29, [(2R)-oxolan-2-yl]methyl N-{[2-(2,6-dioxopiperidin-3-yl)-3-oxo-2,3-dihydro-1H-isoindol-5-yl]methyl}carbamate] came in with a Dmax in test [1] of no more than 10%. Also, the Ki in test [2] is no more than 100 nM.

As to `CC1(COC(=O)NCc2ccc3c(c2)C(=O)N(C2CCC(=O)NC2=O)C3)CCCO1` (stereo not drawn) [Compound 22, (2-methyloxolan-2-yl)methyl N-{[2-(2,6-dioxopiperidin-3-yl)-3-oxo-2,3-dihydro-1H-isoindol-5-yl]methyl}carbamate], the Dmax in test [1] is no more than 10%. The molecule also gave a Ki in test [2] of 100 to 1000 nM.

As for `CC(C)(C)C1CC(OC(=O)NCc2ccc3c(c2)C(=O)N(C2CCC(=O)NC2=O)C3)C1` (stereo not drawn) [Compound 84, 3-tert-butylcyclobutyl N-{[2-(2,6-dioxopiperidin-3-yl)-3-oxo-2,3-dihydro-1H-isoindol-5-yl]methyl}carbamate], in test [1], the Dmax fell in the range of 50 to 80%. In test [2], this molecule came in with an inhibition constant Ki of 100 to 1000 nM.

Consider `O=C1CCC(N2Cc3ccc(CNC(=O)OCC4CC5(CCCC5)CO4)cc3C2=O)C(=O)N1` (stereo not drawn) [Compound 94, {2-oxaspiro[4.4]nonan-3-yl}methyl N-{[2-(2,6-dioxopiperidin-3-yl)-3-oxo-2,3-dihydro-1H-isoindol-5-yl]methyl}carbamate], for which, in test [1], the maximal degradation (Dmax) fell in the range of 10 to 50%. Moreover, the Ki in test [2] was 100 to 1000 nM.

In test [1], `O=C1CCC(N2Cc3ccc(CNC(=O)OCC4OCCc5ccccc54)cc3C2=O)C(=O)N1` (stereo not drawn) [Compound 19, (3,4-dihydro-1H-2-benzopyran-1-yl)methyl N-{[2-(2,6-dioxopiperidin-3-yl)-3-oxo-2,3-dihydro-1H-isoindol-5-yl]methyl}carbamate] came in with a Dmax of no more than 10%. In test [2], the Ki is no more than 100 nM.

In turn, `O=C1CCC(N2Cc3ccc(CNC(=O)OCC4CC(F)(F)C4)cc3C2=O)C(=O)N1` (stereo not drawn) [Compound 46, (3,3-difluorocyclobutyl)methyl N-{[2-(2,6-dioxopiperidin-3-yl)-3-oxo-2,3-dihydro-1H-isoindol-5-yl]methyl}carbamate] showed a Dmax in test [1] of 10 to 50%. In test [2], the Ki is no more than 100 nM.

The molecule `CC1(C)CC(OC(=O)NCc2ccc3c(c2)C(=O)N(C2CCC(=O)NC2=O)C3)C1` (stereo not drawn) [Compound 31, 3,3-dimethylcyclobutyl N-{[2-(2,6-dioxopiperidin-3-yl)-3-oxo-2,3-dihydro-1H-isoindol-5-yl]methyl}carbamate] had a Dmax in test [1] of 10 to 50%. The molecule further came in with an inhibition constant (Ki) in test [2] of 100 to 1000 nM.

Molecule `O=C1CCC(N2Cc3ccc(CNC(=O)OC4CCOC4)cc3C2=O)C(=O)N1` (stereo not drawn) [Compound 13, oxolan-3-yl N-{[2-(2,6-dioxopiperidin-3-yl)-3-oxo-2,3-dihydro-1H-isoindol-5-yl]methyl}carbamate] displayed a maximal degradation (Dmax) in test [1] of no more than 10%. The molecule also returned an inhibition constant (Ki) in test [2] of 100 to 1000 nM.

Take `CC(C)C1CC(COC(=O)NCc2ccc3c(c2)C(=O)N(C2CCC(=O)NC2=O)C3)C1` (stereo not drawn) [Compound 20, [3-(propan-2-yl)cyclobutyl]methyl N-{[2-(2,6-dioxopiperidin-3-yl)-3-oxo-2,3-dihydro-1H-isoindol-5-yl]methyl}carbamate]: the Dmax in test [1] lay in the range of 10 to 50%. The molecule also displayed a Ki in test [2] of no more than 100 nM.

`O=C1CCC(N2Cc3ccc(CNC(=O)OC4CC5(CCC5)C4)cc3C2=O)C(=O)N1` (stereo not drawn) [Compound 3, spiro[3.3]heptan-2-yl ((2-(2,6-dioxopiperidin-3-yl)-3-oxoisoindolin-5-yl)methyl)carbamate] had a Dmax in test [1] of 10 to 50%. In test [2], this molecule came in with a Ki of 100 to 1000 nM.

`O=C1CCC(N2Cc3ccc(CNC(=O)O[C@@H]4CCC[C@H]4c4ccccc4)cc3C2=O)C(=O)N1` (mixture of isomers) [Compound 26, rac-(1R,2S)-2-phenylcyclopentyl N-{[2-(2,6-dioxopiperidin-3-yl)-3-oxo-2,3-dihydro-1H-isoindol-5-yl]methyl}carbamate]: the Dmax in test [1] was 10 to 50%. Also, the Ki in test [2] is no more than 100 nM.

As for `O=C1CCC(N2Cc3ccc(CNC(=O)OCCOC4CC4)cc3C2=O)C(=O)N1` (stereo not drawn) [Compound 21, 2-cyclopropoxyethyl N-{[2-(2,6-dioxopiperidin-3-yl)-3-oxo-2,3-dihydro-1H-isoindol-5-yl]methyl}carbamate], the Dmax in test [1] is no more than 10%. In test [2], this molecule showed a Ki of 100 to 1000 nM.

`CC(C)C1CCC(OC(=O)NCc2ccc3c(c2)C(=O)N(C2CCC(=O)NC2=O)C3)CC1` (stereo not drawn) [Compound 89, 4-(propan-2-yl)cyclohexyl N-{[2-(2,6-dioxopiperidin-3-yl)-3-oxo-2,3-dihydro-1H-isoindol-5-yl]methyl}carbamate] registered a Dmax in test [1] of 50 to 80%. Moreover, in test [2], the inhibitory constant (Ki) is 100 to 1000 nM.

`COC1CC(COC(=O)NCc2ccc3c(c2)C(=O)N(C2CCC(=O)NC2=O)C3)C1` (stereo not drawn) [Compound 66, (3-methoxycyclobutyl)methyl N-{[2-(2,6-dioxopiperidin-3-yl)-3-oxo-2,3-dihydro-1H-isoindol-5-yl]methyl}carbamate] registered a Dmax in test [1] of 10 to 50%. The same molecule displayed a Ki in test [2] of 100 to 1000 nM.

For the molecule `O=C1CCC(N2Cc3ccc(CNC(=O)OCC4CC5(C4)CC4(CCC4)C5)cc3C2=O)C(=O)N1` (stereo not drawn) [Compound 127, dispiro[3.1.36.14]decan-2-ylmethyl((2-(2,6-dioxopiperidin-3-yl)-3-oxoisoindolin-5-yl)methyl)carbamate], the greatest degradation seen (Dmax) in test [3] was 50 to 80%. The molecule further returned a Ki in test [2] of no more than 100 nM.

In test [3], `O=C1CCC(N2Cc3c(Br)cc(CNc4nnc(C5CC6(CCC6)C5)o4)c(O)c3C2=O)C(=O)N1` (stereo not drawn) [Compound 137, 3-(4-bromo-7-hydroxy-1-oxo-6-(((5-(spiro[3.3]heptan-2-yl)-1,3,4-oxadiazol-2-yl)amino)methyl)isoindolin-2-yl)piperidine-2,6-dione] showed a Dmax of 50 to 80%. In test [2], this molecule showed an inhibition constant (Ki) of no more than 100 nM.

For the molecule `O=C1CCC(N2Cc3ccc(CNC(=O)OCC4CCC[C@H]4C(F)(F)F)cc3C2=O)C(=O)N1` (mixture of isomers) [Compound 73, rac-[(1R,2R)-2-(trifluoromethyl)cyclopentyl]methyl N-{[2-(2,6-dioxopiperidin-3-yl)-3-oxo-2,3-dihydro-1H-isoindol-5-yl]methyl}carbamate], the Dmax in test [3] is no more than 10%. In test [2], the Ki is 100 to 1000 nM.
